The results in this text go back to ChEMBL document CHEMBL4017480, “Discovery and optimization of selective FGFR4 inhibitors via scaffold hopping” (Bioorg Med Chem Lett, 2017).

Data set [1] has as its target T1, Tyrosine-protein kinase BTK (Homo sapiens, UniProt Q06187). Put plainly: Inhibition of human BTK using KVEKIGEGTYGVVYK as substrate measured after 120 mins in presence of [gamma33P]ATP by P81 ion exchange chromatographic method.
The next data set deals with VEGFR2 (Homo sapiens, UniProt P35968). The data set can be described thus: Inhibition of human VEGFR2 at 10 uM using poly[Glu:Tyr] (4:1) as substrate measured after 120 mins in presence of [gamma33P]ATP by P81 ion exchange chromatographic method relative to control. Particulars: human VEGFR2 kinase, probe poly[Glu:Tyr] (4:1).
For data set [2], the target named is T2, Tyrosine-protein kinase ITK/TSK (Homo sapiens, UniProt Q08881).
T2 sequence (Q08881 whole entry): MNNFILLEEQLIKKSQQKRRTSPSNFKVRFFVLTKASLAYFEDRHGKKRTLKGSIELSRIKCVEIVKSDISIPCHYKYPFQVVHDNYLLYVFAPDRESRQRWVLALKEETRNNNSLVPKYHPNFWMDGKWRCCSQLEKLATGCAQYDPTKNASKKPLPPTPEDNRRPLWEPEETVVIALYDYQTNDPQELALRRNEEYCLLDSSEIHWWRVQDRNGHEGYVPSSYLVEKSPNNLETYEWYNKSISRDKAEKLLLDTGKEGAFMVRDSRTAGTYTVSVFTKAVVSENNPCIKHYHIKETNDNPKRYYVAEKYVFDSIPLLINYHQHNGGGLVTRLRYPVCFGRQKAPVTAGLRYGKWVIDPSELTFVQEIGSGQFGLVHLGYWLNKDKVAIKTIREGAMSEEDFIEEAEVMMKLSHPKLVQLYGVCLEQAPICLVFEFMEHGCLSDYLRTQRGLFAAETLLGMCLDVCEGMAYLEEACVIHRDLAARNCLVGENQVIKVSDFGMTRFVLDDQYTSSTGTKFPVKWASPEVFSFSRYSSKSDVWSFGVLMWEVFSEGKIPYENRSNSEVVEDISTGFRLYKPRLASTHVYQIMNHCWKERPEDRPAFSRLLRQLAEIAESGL
The data set can be described thus: Inhibition of human ITK using myelin basic protein as substrate measured after 120 mins in presence of [gamma33P]ATP by P81 ion exchange chromatographic method.

Data set [3] concerns the target T1, Tyrosine-protein kinase BTK. The data set can be described thus: Inhibition of human BTK at 10 uM using KVEKIGEGTYGVVYK as substrate measured after 120 mins in presence of [gamma33P]ATP by P81 ion exchange chromatographic method relative to control.
A further data set has as its target Cytochrome P450 2C9 (Homo sapiens, UniProt P11712). The data set can be described thus: Inhibition of CYP2C9 in human liver microsomes using diclofenac as substrate pretreated for 10 mins followed by substrate addition measured after 10 mins in presence of NADPH by LC-MS/MS method. The format is ADME. (Liver microsomes are a subcellular fraction often used to study metabolism.)

Data set [4] deals with T3, Macrophage colony-stimulating factor 1 receptor (Homo sapiens, UniProt P07333). The data set can be described thus: Inhibition of human FMS using poly[Glu:Tyr] (4:1) as substrate measured after 120 mins in presence of [gamma33P]ATP by P81 ion exchange chromatographic method.
The target in another data set is Cytochrome P450 2C19 (Homo sapiens, UniProt P33261). The data set can be described thus: Inhibition of CYP2C19 in human liver microsomes using S-mephenytoin as substrate pretreated for 10 mins followed by substrate addition measured after 10 mins in presence of NADPH by LC-MS/MS method. The format is ADME.
The nature of data set [5]: Stability in mouse plasma assessed as compound remaining at 2 uM measured after 2 hrs by LC-MS/MS analysis. The format is ADME, cell-free. Particulars: read-out: Stability.
Data set [6] is described as follows: Intrinsic clearance in human liver microsomes at 1 uM measured after 60 mins in presence of NADPH by LC-MS/MS analysis. The format is ADME, microsome. Particulars: read-out: CLH.
A short description of data set [7]: Intrinsic clearance in mouse liver microsomes at 1 uM measured after 60 mins in presence of NADPH by LC-MS/MS analysis. The format is ADME, microsome. The settings on record: read-out: CLH.
Data set [8] in a line: Octanol-buffer distribution co-efficient, log D of the compound at pH 7.4. It counts as physicochemical.
In data set [9] the target is T4, Tyrosine-protein kinase ITK/TSK (Homo sapiens) (UniProt Q08881).
T4 sequence (whole entry): T2 sequence (Q08881 whole entry)
The data set can be described thus: Inhibition of human ITK at 10 uM using myelin basic protein as substrate measured after 120 mins in presence of [gamma33P]ATP by P81 ion exchange chromatographic method relative to control.

The target of the next data set is Cytochrome P450 2D6 (Homo sapiens, UniProt P10635). Put plainly: Inhibition of CYP2D6 in human liver microsomes using dextromethorphan as substrate pretreated for 10 mins followed by substrate addition measured after 10 mins in presence of NADPH by LC-MS/MS method. It counts as ADME.
The target of data set [10] is T5, Epidermal growth factor receptor (Homo sapiens, UniProt P00533). Put plainly: Inhibition of human EGFR at 10 uM using poly[Glu:Tyr] (4:1) as substrate measured after 120 mins in presence of [gamma33P]ATP by P81 ion exchange chromatographic method relative to control.
For data set [11], the target named is T5, Epidermal growth factor receptor. Put plainly: Inhibition of human EGFR using poly[Glu:Tyr] (4:1) as substrate measured after 120 mins in presence of [gamma33P]ATP by P81 ion exchange chromatographic method.
A short description of data set [12]: Stability in human plasma assessed as compound remaining at 2 uM measured after 2 hrs by LC-MS/MS analysis. It counts as ADME, cell-free. Particulars: read-out: Stability.
For another data set, the target named is Cytochrome P450 3A4 (Homo sapiens, UniProt P08684). Put plainly: Inhibition of CYP3A4 in human liver microsomes using midazolam as substrate pretreated for 10 mins followed by substrate addition measured after 10 mins in presence of NADPH by LC-MS/MS method. The format is ADME.
Data set [13] deals with T3, Macrophage colony-stimulating factor 1 receptor. Put plainly: Inhibition of human FMS at 10 uM using poly[Glu:Tyr] (4:1) as substrate measured after 120 mins in presence of [gamma33P]ATP by P81 ion exchange chromatographic method relative to control.

Cytochrome P450 2C19, sequence (P33261 whole entry): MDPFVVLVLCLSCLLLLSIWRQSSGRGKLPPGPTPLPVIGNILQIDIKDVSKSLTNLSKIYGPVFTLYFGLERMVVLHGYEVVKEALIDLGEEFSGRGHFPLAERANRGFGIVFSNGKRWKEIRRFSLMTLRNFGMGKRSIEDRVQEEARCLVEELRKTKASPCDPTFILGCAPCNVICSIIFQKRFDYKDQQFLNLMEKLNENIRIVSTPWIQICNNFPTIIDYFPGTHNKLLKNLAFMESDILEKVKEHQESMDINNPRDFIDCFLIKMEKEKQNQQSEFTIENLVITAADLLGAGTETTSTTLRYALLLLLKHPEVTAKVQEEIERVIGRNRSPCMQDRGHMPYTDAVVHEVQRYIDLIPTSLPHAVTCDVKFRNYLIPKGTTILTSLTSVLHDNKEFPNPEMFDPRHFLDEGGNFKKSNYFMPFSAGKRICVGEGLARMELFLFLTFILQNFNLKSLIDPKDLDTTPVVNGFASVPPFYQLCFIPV
Cytochrome P450 3A4, sequence (P08684 whole entry): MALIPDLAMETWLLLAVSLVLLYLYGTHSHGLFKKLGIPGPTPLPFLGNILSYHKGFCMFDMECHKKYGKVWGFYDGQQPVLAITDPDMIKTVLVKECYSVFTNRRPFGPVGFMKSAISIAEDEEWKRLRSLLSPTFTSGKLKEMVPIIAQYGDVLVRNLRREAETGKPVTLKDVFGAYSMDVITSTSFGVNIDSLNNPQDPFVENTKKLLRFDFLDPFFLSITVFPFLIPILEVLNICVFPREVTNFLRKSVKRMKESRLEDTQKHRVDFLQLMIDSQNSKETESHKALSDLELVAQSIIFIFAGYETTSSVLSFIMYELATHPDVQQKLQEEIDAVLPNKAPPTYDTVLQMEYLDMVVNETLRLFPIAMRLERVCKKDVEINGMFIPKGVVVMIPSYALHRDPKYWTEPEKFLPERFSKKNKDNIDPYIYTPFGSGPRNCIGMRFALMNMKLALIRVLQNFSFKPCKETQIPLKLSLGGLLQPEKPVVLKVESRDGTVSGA
Cytochrome P450 2D6, sequence (P10635 whole entry): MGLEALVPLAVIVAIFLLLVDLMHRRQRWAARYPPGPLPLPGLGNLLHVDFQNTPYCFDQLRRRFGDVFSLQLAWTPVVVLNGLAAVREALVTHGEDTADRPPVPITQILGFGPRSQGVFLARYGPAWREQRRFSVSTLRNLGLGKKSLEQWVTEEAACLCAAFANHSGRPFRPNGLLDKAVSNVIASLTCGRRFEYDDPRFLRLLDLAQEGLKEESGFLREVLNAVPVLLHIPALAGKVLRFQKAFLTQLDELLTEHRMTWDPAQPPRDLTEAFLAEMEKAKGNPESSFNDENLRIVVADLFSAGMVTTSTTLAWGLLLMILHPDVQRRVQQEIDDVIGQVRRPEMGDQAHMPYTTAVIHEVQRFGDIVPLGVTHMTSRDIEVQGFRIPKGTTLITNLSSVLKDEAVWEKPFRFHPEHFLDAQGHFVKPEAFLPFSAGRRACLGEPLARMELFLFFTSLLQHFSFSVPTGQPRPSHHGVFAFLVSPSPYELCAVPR
T1 sequence (Q06187 whole entry): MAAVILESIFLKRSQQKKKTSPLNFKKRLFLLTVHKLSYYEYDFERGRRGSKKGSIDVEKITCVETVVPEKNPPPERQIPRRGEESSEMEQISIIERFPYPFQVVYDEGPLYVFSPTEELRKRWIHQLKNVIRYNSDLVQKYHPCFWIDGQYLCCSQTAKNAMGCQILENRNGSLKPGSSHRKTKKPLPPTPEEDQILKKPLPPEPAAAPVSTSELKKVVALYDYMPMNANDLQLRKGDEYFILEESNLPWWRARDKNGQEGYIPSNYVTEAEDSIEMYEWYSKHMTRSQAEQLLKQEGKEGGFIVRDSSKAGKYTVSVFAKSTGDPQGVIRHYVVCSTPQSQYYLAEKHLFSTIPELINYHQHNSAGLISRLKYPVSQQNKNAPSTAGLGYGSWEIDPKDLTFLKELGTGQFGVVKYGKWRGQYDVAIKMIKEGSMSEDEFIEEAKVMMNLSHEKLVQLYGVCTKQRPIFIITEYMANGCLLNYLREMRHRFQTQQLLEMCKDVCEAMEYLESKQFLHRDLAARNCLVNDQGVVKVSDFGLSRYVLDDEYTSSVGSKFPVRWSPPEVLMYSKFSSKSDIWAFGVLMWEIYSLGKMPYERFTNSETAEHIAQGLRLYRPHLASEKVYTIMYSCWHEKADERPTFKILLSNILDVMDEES
T3 sequence (P07333 whole entry): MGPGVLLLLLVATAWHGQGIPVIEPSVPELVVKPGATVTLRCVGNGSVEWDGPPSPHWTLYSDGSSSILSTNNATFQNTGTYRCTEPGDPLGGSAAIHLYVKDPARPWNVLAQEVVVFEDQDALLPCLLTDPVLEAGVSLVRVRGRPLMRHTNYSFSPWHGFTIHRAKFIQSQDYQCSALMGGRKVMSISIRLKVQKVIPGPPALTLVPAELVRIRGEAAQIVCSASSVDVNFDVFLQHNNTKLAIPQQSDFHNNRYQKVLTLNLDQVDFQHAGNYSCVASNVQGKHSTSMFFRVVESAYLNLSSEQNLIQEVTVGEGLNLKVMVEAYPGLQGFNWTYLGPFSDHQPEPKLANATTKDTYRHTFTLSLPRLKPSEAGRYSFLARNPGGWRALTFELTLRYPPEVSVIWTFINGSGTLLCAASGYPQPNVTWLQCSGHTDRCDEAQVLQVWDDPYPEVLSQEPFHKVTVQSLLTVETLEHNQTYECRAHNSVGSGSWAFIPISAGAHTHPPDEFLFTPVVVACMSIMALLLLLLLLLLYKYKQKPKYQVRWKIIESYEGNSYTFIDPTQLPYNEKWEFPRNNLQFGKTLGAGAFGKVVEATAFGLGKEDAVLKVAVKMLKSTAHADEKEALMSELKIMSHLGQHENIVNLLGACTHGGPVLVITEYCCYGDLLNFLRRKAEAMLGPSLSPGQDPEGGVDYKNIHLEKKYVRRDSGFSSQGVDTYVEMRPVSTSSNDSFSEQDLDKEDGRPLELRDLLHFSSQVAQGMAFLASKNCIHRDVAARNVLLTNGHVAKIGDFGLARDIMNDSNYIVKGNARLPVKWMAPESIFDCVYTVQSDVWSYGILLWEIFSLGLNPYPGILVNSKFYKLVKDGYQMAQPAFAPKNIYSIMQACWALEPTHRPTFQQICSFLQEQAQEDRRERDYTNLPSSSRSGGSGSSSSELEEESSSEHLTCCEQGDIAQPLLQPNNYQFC
T5 sequence (P00533 whole entry): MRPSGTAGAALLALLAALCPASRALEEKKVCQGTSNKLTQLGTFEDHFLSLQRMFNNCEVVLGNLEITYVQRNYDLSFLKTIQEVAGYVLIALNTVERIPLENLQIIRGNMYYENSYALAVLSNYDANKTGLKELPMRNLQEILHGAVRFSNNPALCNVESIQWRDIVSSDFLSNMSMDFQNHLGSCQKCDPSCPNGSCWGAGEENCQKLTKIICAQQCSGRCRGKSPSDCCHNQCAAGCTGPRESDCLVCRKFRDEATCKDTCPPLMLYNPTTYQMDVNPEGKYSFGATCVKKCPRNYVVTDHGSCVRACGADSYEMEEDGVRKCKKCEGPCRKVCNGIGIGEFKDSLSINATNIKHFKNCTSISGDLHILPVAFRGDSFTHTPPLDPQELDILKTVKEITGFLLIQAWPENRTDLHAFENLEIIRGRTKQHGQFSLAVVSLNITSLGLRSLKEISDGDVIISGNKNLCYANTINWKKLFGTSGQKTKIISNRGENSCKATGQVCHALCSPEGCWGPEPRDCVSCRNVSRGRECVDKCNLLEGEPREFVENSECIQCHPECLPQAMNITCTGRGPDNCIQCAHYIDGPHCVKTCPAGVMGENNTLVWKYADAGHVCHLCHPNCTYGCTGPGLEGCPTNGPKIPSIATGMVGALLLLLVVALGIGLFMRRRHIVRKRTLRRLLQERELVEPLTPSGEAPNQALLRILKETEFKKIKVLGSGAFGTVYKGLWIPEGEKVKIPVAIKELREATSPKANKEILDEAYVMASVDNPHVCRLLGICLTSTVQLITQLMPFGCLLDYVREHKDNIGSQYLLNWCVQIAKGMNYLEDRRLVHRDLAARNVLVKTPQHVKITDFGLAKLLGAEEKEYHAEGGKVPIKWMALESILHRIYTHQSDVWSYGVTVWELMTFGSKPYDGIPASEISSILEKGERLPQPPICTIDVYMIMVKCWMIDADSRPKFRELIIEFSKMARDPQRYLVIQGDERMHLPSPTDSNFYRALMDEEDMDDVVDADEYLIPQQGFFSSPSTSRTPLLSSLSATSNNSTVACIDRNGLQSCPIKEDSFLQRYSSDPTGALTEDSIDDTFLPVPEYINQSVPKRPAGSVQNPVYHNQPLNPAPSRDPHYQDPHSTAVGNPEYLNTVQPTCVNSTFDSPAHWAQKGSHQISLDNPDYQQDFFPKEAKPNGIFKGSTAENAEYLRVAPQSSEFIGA
Cytochrome P450 2C9, sequence (P11712 whole entry): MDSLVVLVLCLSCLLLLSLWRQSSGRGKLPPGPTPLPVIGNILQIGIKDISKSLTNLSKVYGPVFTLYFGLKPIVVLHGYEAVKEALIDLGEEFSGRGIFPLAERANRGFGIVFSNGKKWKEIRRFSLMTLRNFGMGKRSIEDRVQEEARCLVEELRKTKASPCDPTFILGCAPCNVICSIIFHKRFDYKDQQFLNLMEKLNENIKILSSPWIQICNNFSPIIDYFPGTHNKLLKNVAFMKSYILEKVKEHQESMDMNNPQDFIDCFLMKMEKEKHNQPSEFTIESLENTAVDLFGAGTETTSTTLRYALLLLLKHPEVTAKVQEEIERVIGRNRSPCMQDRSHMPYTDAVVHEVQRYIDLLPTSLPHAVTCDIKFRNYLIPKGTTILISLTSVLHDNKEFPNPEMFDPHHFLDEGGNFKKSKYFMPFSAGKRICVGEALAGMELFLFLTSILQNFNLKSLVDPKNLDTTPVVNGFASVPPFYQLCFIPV

As to `C=CC(=O)Nc1cccc(C)c1Nc1ncc2cc(-c3c(Cl)c(OC)cc(OC)c3Cl)ccc2n1`, the IC50 is over 10 µM in data set [1]; over 10 µM in [2]; 0.9 µM on Cytochrome P450 2C9; 1.1 µM in data set [4]; 1.7 µM on Cytochrome P450 2C19; 12.5 µM on Cytochrome P450 2D6. In addition, the 50% inhibitory concentration (IC50) in [11] was over 10 µM; at Cytochrome P450 3A4 it was 3 µM. The inhibition at 2 h, 10 µM on VEGFR2 amounted to 23%. Also, the inhibition in data set [3] was -7%; in data set [9] it was 16%; in [10], 1%; in [13] it was 78%. Moreover, the remaining at 2 h, 2 µM in data set [5] worked out at 63%; in data set [12], 71%. In addition, the results for the CLint scaled at 1 µM in data set [6] and in [7] were 41 mL/min/kg and 97 mL/min/kg, respectively. Moreover, the logD in [8] is over 4.5.
Take `C=CC(=O)Nc1cccc(C)c1Nc1ncc(OCc2c(F)c(OC)cc(OC)c2F)cn1`: the IC50 in data set [1] was over 10 µM; in [2] it was over 10 µM; on Cytochrome P450 2C9, 3.7 µM; in data set [4], over 10 µM; on Cytochrome P450 2C19, 1.5 µM; at Cytochrome P450 2D6, 35 µM. Moreover, the IC50 was over 10 µM in data set [11] and 6.9 µM at Cytochrome P450 3A4. Besides, the inhibition at 2 h, 10 µM on VEGFR2 is 19%. Besides, the inhibition is 7% in data set [3], 9% in [9], 6% in [10] and 4% in data set [13]. For the same molecule, the values for the remaining at 2 h, 2 µM in [5] and in data set [12] were 13% and 48%, respectively. Further, the figures for the CLint scaled at 1 µM in data set [6] and in data set [7] were 165 mL/min/kg and 9640 mL/min/kg, respectively. Further, the logD in data set [8] is 3.
For `C=CC(=O)N[C@H]1COC[C@H]1Nc1ncc(OCc2c(F)c(OC)cc(OC)c2F)cn1`, the IC50 in data set [1] was over 10 µM; in data set [2] it was over 10 µM; on Cytochrome P450 2C9, 29.1 µM; in data set [4], over 10 µM; on Cytochrome P450 2C19, 19.8 µM; on Cytochrome P450 2D6, over 50 µM. The IC50 in [11] was over 10 µM; at Cytochrome P450 3A4, 13.3 µM. For the same molecule, the inhibition at 2 h, 10 µM on VEGFR2 was 11%. In addition, the inhibition in data set [3] stood at 14%; in data set [9], 0%; in data set [10], 1%; in data set [13] it was 6%. For the same molecule, the remaining at 2 h, 2 µM came to 97% in data set [5] and 92% in data set [12]. Further, the CLint scaled at 1 µM in data set [6] amounted to 18 mL/min/kg; in data set [7], 474 mL/min/kg. Further, the pH-dependent lipophilicity (logD) in data set [8] worked out at 1.8.

By IC50 is commonly meant the concentration at which inhibition is half-maximal. The inhibition is the change of the read-out against control, counted positive when it falls. What is called logD is the decadic logarithm of the distribution of all forms, ionised or not, between an organic phase and buffer at a given pH. Lower therefore signals a more hydrophilic compound.
